# Measurements reported in patent US20260272902A1, “C[…] ACID SALT FORM OF A CCR6 ANTAGONIST” (Idorsia Pharmaceuticals Ltd, priority 2022, published 2026).
# Experiment: Gravimetric vapor sorption (GVS) analysis / hygroscopicity
# Assay type: physicochemical
# Settings: GVS at 25° C., FIG. 4
# Description: Gravimetric vapor sorption analysis was performed with SPS 100n (ProUmid GmbH & Co. KG). An appropriate amount of the sample was placed into a tared aluminum pan without any pre-treatment. The analysis was run at a temperature of 25° C. with the following humidity program: 40%-0%-95%-40% in steps of 5% with maximum equilibration time of 24 h at each step. Analyzing software was ProUmid Excel template #SPS_4_3_23_E2010_drycorr.xltm.
substance,measurement,setting,value
"2-(3-{5-[(R)-(1,3-dimethyl-azetidin-3-yl)-hydroxy-(4-isopropyl-phenyl)-methyl]-pyridin-3-yl}-[1,2,4]oxadiazol-5-yl)-propan-2-ol adipic acid salt",Hygroscopicity classification acc. to Eur. Phar.,,is classified as non-hygroscopic acc. to Eur. Phar.
same,Hygroscopicity: water uptake,between 40% and 80% RH,Less than 0.1% water uptake between 40% and 80% RH. Sample
